Assay [1] has as its system PU.1 URE−/− AML cell line. The assay is described as follows: Cell viability/growth of PU.1 URE−/− AML cells. The assay is classed as cell-based, murine. Particulars: Mus musculus; read-out: IC50 URE−/−. As to the method: (§1) FIG. 2A-2F. PU.1 inhibition decreases cell growth and increases apoptosis of PU.1^1″ leukemic cells. (A) Chemical structures of heterocyclic diamidines DB1976, DB2115 and DB2313 used in this study. (B) Relative cell viability of URE−/− cells and BAF3 cells after treatment with increasing concentrations of vehicle or small molecules. Cell viability was assessed after 48 h. Data represent means of technical triplicate from one representative experiment; fold change compared to Vehicle is shown. (C) Cell proliferation assay of URE−/− after treatment with DB1976 (n=5), DB2115 (n=3), DB2313 (n=3), of MOLM13 cells (n=3), and THP1 cells (n=3). Cell counting was performed every 24 h during 4 days. Data represent means±SD of technical triplicate from one representative experiment. Forward strand: SEQ ID NO:3, and Reverse strand: SEQ ID NO:4; derived from the λB motif from the murine Ig lambda 2-4 enhancer, a known native PU.1-dependent gene and specific binding site for PU.1. (D) Clonogenic capacities of URE−/− cells after treatment with DB1976 (n=5), DB2115 (n=3) and DB2313 (n=4) in the first plating, and after serial replatings (n=3). Data represent means±SD of technical triplicate from one representative experiment. (E) Apoptotic cells (Annexin-V+Dapi−) fraction in URE−/− cells after 48 h of treatment with DB1976 (n=6), DB2115 (n=6) and DB2313 (n=3). Data represent the means±SD of independent experiments; fold change compared to Vehicle is shown. *P<0.05, **P<0.01, ***P<0.001, ****P<0.0001 (F) Dose dependent inhibitor of PU.1-dependent transactivation.
(§2) To determine if our PU.1 inhibitors have an effect on PU.1^low-induced AML cells, we treated the PU.1 URE^−/− AML cell line with compounds at different concentrations. Treatment with the drugs led to a profound decrease in growth of PU.1 URE^−/− AML cells after 48 h whereas it had only minimal or no effects on control cells with normal PU.1 levels (BaF3), even at very high doses (FIG. 3A). […] Similar to our observations with PU.1-directed shRNAs, treatment with pharmacological PU.1 inhibitors led to a significant 1.6-, 2- and 3.5-fold increase of apoptotic cells with DB1976, DB2115 and DB2313, respectively, in murine PU.1 URE^−/− AML cells (FIG. 3C), and similar effects in human MOLM13 cells.

The next assay deals with BaF3 cells. The experiment in a line: Cell viability of BaF3 control cells. It counts as cell-based, murine. Particulars: Mus musculus, NR = Not Reached. As to the method: as §1, §2

Consider `N=C(N)c1ccc2nc(-c3ccc(OCCOCCOc4ccc(-c5nc6ccc(C(=N)N)cc6[nH]5)cc4)cc3)[nH]c2c1` [DB2146], for which the IC50 in assay [1] came to 5 µM; in the assay with BaF3 cells it was 68 µM.
For the molecule `CN(CCOc1ccc(-c2nc3ccc(C(=N)N)cc3[nH]2)cc1)CCOc1ccc(-c2nc3ccc(C(=N)N)cc3[nH]2)cc1` [DB2150], the IC50 was 20 µM in assay [1] and 416 µM in the assay on BaF3 cells.
As to `Cn1c(-c2ccc(OCCCOc3ccc(-c4nc5cc(C(=N)N)ccc5n4C)cc3)cc2)nc2cc(C(=N)N)ccc21` [DB2237], the IC50 in assay [1] was found to be 4.4 µM.
Regarding `CC(C)NC(=N)c1ccc2nc(-c3ccc(OCCOCCOc4ccc(-c5nc6ccc(C(=N)NC(C)C)cc6[nH]5)cc4)cc3)[nH]c2c1` [DB2295], the IC50 in assay [1] was found to be 10.5 µM.
Turning to `CC(C)NC(=N)c1ccc2nc(-c3ccc(OCc4cccc(COc5ccc(-c6nc7ccc(C(=N)NC(C)C)cc7[nH]6)cc5)n4)cc3)[nH]c2c1` [DB2302], the IC50 in assay [1] was determined as 7.8 µM.
With `Cn1c(-c2ccc(OCc3cccc(COc4ccc(-c5nc6cc(C(=N)N)ccc6n5C)cc4)n3)cc2)nc2cc(C(=N)N)ccc21` [DB2326], the figures for the IC50 (in assay [1]; in the assay on BaF3 cells) were 1.9 µM and 48 µM, respectively.
Turning to `N=C(N)c1ccc2nc(-c3ccc(OCC(F)(F)C(F)(F)C(F)(F)COc4ccc(-c5nc6ccc(C(=N)N)cc6[nH]5)cc4)cc3)[nH]c2c1` [DB2355], the IC50 stood at 1.7 µM in assay [1] and 49 µM with BaF3 cells.
With `Cn1c(-c2ccc(-c3ccc(C(=N)N)cc3)s2)nc2cc(-c3ccc(C(=N)N)cc3)ccc21` [DB2457], the IC50 in assay [1] came out at 16.5 µM.
On the same count and under the same terms, the figure for `N=C(N)c1ccc2nc(-c3ccc(Oc4ccc(Oc5ccc(-c6nc7ccc(C(=N)N)cc7[nH]6)cc5)cc4)cc3)[nH]c2c1` [DB2483] is 5.3 µM.
As for `N=C(N)c1ccc2nc(-c3ccc(OCC(F)(F)C(F)(F)Oc4ccc(-c5nc6ccc(C(=N)N)cc6[nH]5)cc4)cc3)[nH]c2c1` [DB2514], the results for the IC50 (in assay [1]; in the assay with BaF3 cells) were 5.6 µM and 44.5 µM, respectively.

The record behind these values is patent publication US10774049B2, “PU.1 inhibitors” (Albert Einstein College of Medicine, priority 2016, dated 2020).
